Test results from patent publication US10485235B2, “Aryloxypyrimidinyl ethers as herbicides” (FMC Corporation, priority 2015, dated 2019).

Key:
Format in all cases: in vivo
[1] = system: wheat (Triticum aestivum); assay: Test A postemergence, wheat; settings: Triticum aestivum, post-emergence, 240 h, postemergence, 0 to 100 scale, 0 is no effect, 100 is complete control, approximately 10 days, read-out: Plant response rating, Wheat; for plant injury at 31 g/ha: 31 g ai/ha; for plant injury at 125 g/ha: 125 g ai/ha
Outline: (§1)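 Visual injury rating versus untreated controls on a 0 to 100 scale (0 = no effect, 100 = complete control), taken about 10 days after treatment in the greenhouse. Preemergence: directed soil spray over seeded loam–sand. Postemergence: spray on one- to two-leaf plants, 2 to 10 cm tall.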

[2] = system: galium (catchweed bedstraw, Galium aparine); assay: Test A postemergence, galium; settings: Galium, post-emergence, 240 h, postemergence, 0 to 100 scale, 0 is no effect, 100 is complete control, approximately 10 days, read-out: Plant response rating, Galium; for pest or weed control at 31 g/ha: 31 g ai/ha; for pest or weed control at 125 g/ha: 125 g ai/ha
Outline: as §1

[3] = system: barnyardgrass (Echinochloa crus-galli); assay: Test B flooded paddy test, barnyardgrass; settings: Echinochloa crus-galli; 250 g ai/ha, Flood; visual rating after 13 to 15 days; scale 0 to 100, 0 is no effect, 100 is complete control; read-out: Plant response rating, Barnyardgrass
Outline: (§2)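 2-leaf plants; flood to 3 cm, dose into water, hold depth; greenhouse 13–15 d; visual score 0–100 vs controls; dash = not tested.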

rice (Oryza sativa) = assay: Test B flooded paddy test, rice; settings: Oryza sativa; 250 g ai/ha, Flood; visual rating after 13 to 15 days; scale 0 to 100, 0 is no effect, 100 is complete control; read-out: Plant response rating, Rice
Outline: as §2

kochia (Kochia scoparia) [4] = assay: Test A postemergence, kochia; settings: Bassia scoparia, post-emergence, 240 h, postemergence, 0 to 100 scale, 0 is no effect, 100 is complete control, approximately 10 days, read-out: Plant response rating, Kochia; for pest or weed control at 31 g/ha: 31 g ai/ha; for pest or weed control at 125 g/ha: 125 g ai/ha
Outline: as §1

[5] = system: foxtail, giant (giant foxtail, Setaria faberii); assay: Test A postemergence, giant foxtail; settings: Setaria faberi, post-emergence, 240 h, postemergence, 0 to 100 scale, 0 is no effect, 100 is complete control, approximately 10 days, read-out: Plant response rating, Foxtail, Giant; for pest or weed control at 31 g/ha: 31 g ai/ha; for pest or weed control at 125 g/ha: 125 g ai/ha
Outline: as §1

[6] = system: ryegrass, Italian (Italian ryegrass, Lolium multiflorum); assay: Test A postemergence, Italian ryegrass; settings: Lolium multiflorum, post-emergence, 240 h, postemergence, 0 to 100 scale, 0 is no effect, 100 is complete control, approximately 10 days, read-out: Plant response rating, Ryegrass, Italian; for pest or weed control at 31 g/ha: 31 g ai/ha; for pest or weed control at 125 g/ha: 125 g ai/ha
Outline: as §1

[7] = system: ryegrass, Italian (Italian ryegrass, Lolium multiflorum); assay: Test A preemergence, Italian ryegrass; settings: Lolium multiflorum, pre-emergence, 240 h, Preemergence, 0 to 100 scale (0 no effect, 100 complete control), read-out: Plant response rating, Ryegrass, Italian; for pest or weed control at 31 g/ha: 31 g ai/ha; for pest or weed control at 125 g/ha: 125 g ai/ha
Outline: as §1

[8] = system: pigweed (Amaranthus retroflexus); assay: Test A postemergence, pigweed; settings: Amaranthus retroflexus, post-emergence, 240 h, postemergence, 0 to 100 scale, 0 is no effect, 100 is complete control, approximately 10 days, read-out: Plant response rating, Pigweed; for pest or weed control at 31 g/ha: 31 g ai/ha; for pest or weed control at 125 g/ha: 125 g ai/ha
Outline: as §1

[9] = system: pigweed (Amaranthus retroflexus); assay: Test A preemergence, pigweed; settings: Amaranthus retroflexus, pre-emergence, 240 h, Preemergence, 0 to 100 scale (0 no effect, 100 complete control), read-out: Plant response rating, Pigweed; for pest or weed control at 31 g/ha: 31 g ai/ha; for pest or weed control at 125 g/ha: 125 g ai/ha
Outline: as §1

kochia (Kochia scoparia) [10] = assay: Test A preemergence, kochia; settings: Bassia scoparia, pre-emergence, 240 h, Preemergence, 0 to 100 scale (0 no effect, 100 complete control), read-out: Plant response rating, Kochia; for pest or weed control at 31 g/ha: 31 g ai/ha; for pest or weed control at 125 g/ha: 125 g ai/ha
Outline: as §1

[11] = system: foxtail, giant (giant foxtail, Setaria faberii); assay: Test A preemergence, giant foxtail; settings: Setaria faberi, pre-emergence, 240 h, Preemergence, 0 to 100 scale (0 no effect, 100 complete control), read-out: Plant response rating, Foxtail, Giant; for pest or weed control at 31 g/ha: 31 g ai/ha; for pest or weed control at 125 g/ha: 125 g ai/ha
Outline: as §1

[12] = system: sedge, umbrella (small-flower umbrella sedge, Cyperus difformis); assay: Test B flooded paddy test, umbrella sedge; settings: Cyperus difformis; 250 g ai/ha, Flood; visual rating after 13 to 15 days; scale 0 to 100, 0 is no effect, 100 is complete control; read-out: Plant response rating, Sedge, Umbrella
Outline: as §2

[13] = system: blackgrass (Alopecurus myosuroides); assay: Test A postemergence, blackgrass; settings: Alopecurus myosuroides, post-emergence, 240 h, postemergence, 0 to 100 scale, 0 is no effect, 100 is complete control, approximately 10 days, read-out: Plant response rating, Blackgrass; for pest or weed control at 31 g/ha: 31 g ai/ha; for pest or weed control at 125 g/ha: 125 g ai/ha
Outline: as §1

Compound | plant injury at 31 g/ha [1] [%] | plant injury at 125 g/ha [1] [%] | pest or weed control at 31 g/ha [2] [%] | pest or weed control at 125 g/ha [2] [%] | pest or weed control at 250 g/ha [3] [%] | plant injury at 250 g/ha (rice (Oryza sativa)) [%] | pest or weed control at 31 g/ha (kochia (Kochia scoparia) [4]) [%] | pest or weed control at 125 g/ha (kochia (Kochia scoparia) [4]) [%] | pest or weed control at 31 g/ha [5] [%] | pest or weed control at 125 g/ha [5] [%] | pest or weed control at 31 g/ha [6] [%] | pest or weed control at 125 g/ha [6] [%] | pest or weed control at 31 g/ha [7] [%] | pest or weed control at 125 g/ha [7] [%] | pest or weed control at 31 g/ha [8] [%] | pest or weed control at 125 g/ha [8] [%] | pest or weed control at 31 g/ha [9] [%] | pest or weed control at 125 g/ha [9] [%] | pest or weed control at 31 g/ha (kochia (Kochia scoparia) [10]) [%] | pest or weed control at 125 g/ha (kochia (Kochia scoparia) [10]) [%] | also measured
Cc1cccc(Oc2ncc(Cl)cn2)c1OCC(F)(F)F [Compound 63] | 0 | 0 | 0 | 0 | 0 | 0 | 0 | 0 | 0 | 0 | 0 | 0 | 0 | 0 | 0 | 0 | 0 | 0 | 0 | 0 | pest or weed control at 31 g/ha [11]: 0%; pest or weed control at 125 g/ha [11]: 0%; pest or weed control at 250 g/ha [12]: 90%; pest or weed control at 31 g/ha [13]: 0%; pest or weed control at 125 g/ha [13]: 0%
FC(F)(F)COc1c(I)cccc1Oc1ncc(Cl)cn1 [Compound 65] | 0 | 0 | 30 | 50 | 20 | 0 | 80 | 100 | 10 | 50 | 0 | 10 | 0 | 10 | 70 | 100 | 50 | 100 | 20 | 90 | pest or weed control at 31 g/ha [11]: 30%; pest or weed control at 125 g/ha [11]: 100%; pest or weed control at 250 g/ha [12]: 90%; pest or weed control at 31 g/ha [13]: 0%; pest or weed control at 125 g/ha [13]: 30%
